Data taken from EP0414533A1, “Use of iodopropargyl esters of alpha-amino acid derivatives as antimicrobial agents” (ROHM AND HAAS COMPANY, priority 1989, dated 1991).
Converted amounts (≈) assume the structure as drawn. Like-named read-outs stand apart in the source and are kept apart here.

What was measured:
Assay type in all cases: cell-based
[1] = system: Xanthomonas campestris (XAN); assay: In-vitro plant fungicide test; design: inhibition of growth: concentration or dose not given beside the values; conditions: Xanthomonas campestris
ALT = assay: In-vitro plant fungicide test; conditions: Table IVb, read-out: % Control at (ppm) indicated ALT
THREE FUNGI = assay: MIC test against three fungi in Mycophile Broth, pH 5.0, read after 8 days (Table VII); conditions: 192 h, serial dilutions from 50 ppm, read after 8 days of incubation
MON = assay: In-vitro plant fungicide test; conditions: Table IVb, read-out: % Control at (ppm) indicated MON
PSH = assay: In-vitro plant fungicide test; conditions: Table IVb, read-out: % Control at (ppm) indicated PSH
Botrytis cinerea (BOC) = assay: In-vitro plant fungicide test; conditions: Botrytis cinerea
COL = assay: In-vitro plant fungicide test; conditions: Table IVb, read-out: % Control at (ppm) indicated COL
Piricularia oryzae (PIR) = assay: microbe, parasite or virus in culture
Pythium ultimum (PYU) = assay: In-vitro plant fungicide test; conditions: Globisporangium ultimum
Septoria nodorum (SEP) = assay: In-vitro plant fungicide test; conditions: Parastagonospora nodorum
[2] = Table IVb, read-out: % Control at (ppm) indicated XAN

For CC(C)(C)OC(=O)NCC(=O)OCC#CI [Compound 1, N-t-butoxycarbonylglycine iodopropargyl ester], the inhibition of growth at 1.5 ppm ([1]; 1.5 ppm, Table IVb, read-out: % Control at (ppm) indicated XAN) was 0%, the inhibition of growth at 3 ppm ([1]; 3 ppm, Table IVb, read-out: % Control at (ppm) indicated XAN) was 0% and the inhibition of growth at 6 ppm ([1]; 6 ppm, Table IVb, read-out: % Control at (ppm) indicated XAN) was 0%. The inhibition of growth at 25 ppm ([1]; Table IVa, read-out: % Control at 25 ppm XAN) was 0%, the inhibition of growth at 25 ppm [1, 2] was 0% and the inhibition of growth at 0.2 ppm ([1]; .2 ppm, Table IVb, read-out: % Control at (ppm) indicated XAN) was 0%. The inhibition of growth at 0.4 ppm ([1]; .4 ppm, Table IVb, read-out: % Control at (ppm) indicated XAN) was 0%, the inhibition of growth at 0.8 ppm ([1]; .8 ppm, Table IVb, read-out: % Control at (ppm) indicated XAN) was 0% and the inhibition of growth [1, 2] was 0%. It also gave an inhibition of growth at 1.5 ppm (ALT; 1.5 ppm) of 0%, an inhibition of growth at 3 ppm (ALT; 3 ppm) of 50% and an inhibition of growth at 6 ppm (ALT; 6 ppm) of 50%. For the same compound, the inhibition of growth at 12 ppm (ALT; 12 ppm) was 100%, the inhibition of growth at 25 ppm (ALT; 25 ppm) was 100% and the inhibition of growth at 0.2 ppm (ALT; .2 ppm) was 0%. For the same compound, the inhibition of growth at 0.4 ppm (ALT; .4 ppm) was 0%, the inhibition of growth at 0.8 ppm (ALT; .8 ppm) was 0% and the MIC (THREE FUNGI; Aspergillus niger, read-out: MIC ANIG) was 3.2 µg/mL (≈ 9.44 µM). The MIC (THREE FUNGI; Aureobasidium pullulans, read-out: MIC APUL) was 12.5 µg/mL (≈ 36.9 µM), the MIC (THREE FUNGI; Gloeophyllum trabeum, read-out: MIC GTRA) was 1.6 µg/mL (≈ 4.72 µM) and the inhibition of growth at 1.5 ppm (MON; 1.5 ppm) was 75%. It also gave an inhibition of growth at 6 ppm (MON; 6 ppm) of 100%, an inhibition of growth at 25 ppm (MON; 25 ppm) of 100% and an inhibition of growth at 0.2 ppm (MON; .2 ppm) of 0%. It also gave an inhibition of growth at 0.4 ppm (MON; .4 ppm) of 0%, an inhibition of growth at 0.8 ppm (MON; .8 ppm) of 0% and an inhibition of growth at 1.5 ppm (PSH; 1.5 ppm) of 100%. The inhibition of growth at 6 ppm (PSH; 6 ppm) was 100%, the inhibition of growth at 25 ppm (PSH; 25 ppm) was 100% and the inhibition of growth at 0.2 ppm (PSH; .2 ppm) was 0%. The inhibition of growth at 0.4 ppm (PSH; .4 ppm) was 0%, the inhibition of growth at 0.8 ppm (PSH; .8 ppm) was 75% and the inhibition of growth at 1.5 ppm (Botrytis cinerea (BOC); 1.5 ppm, Table IVb, read-out: % Control at (ppm) indicated BOC) was 0%. For the same compound, the inhibition of growth at 6 ppm (Botrytis cinerea (BOC); 6 ppm, Table IVb, read-out: % Control at (ppm) indicated BOC) was 0%, the inhibition of growth at 25 ppm (Botrytis cinerea (BOC); Table IVa, *=Phytotoxic, read-out: % Control at 25 ppm BOC) was 100% and the inhibition of growth at 25 ppm (Botrytis cinerea (BOC); Table IVb, read-out: % Control at (ppm) indicated BOC) was 100%. The inhibition of growth at 0.2 ppm (Botrytis cinerea (BOC); .2 ppm, Table IVb, read-out: % Control at (ppm) indicated BOC) was 0%, the inhibition of growth at 0.4 ppm (Botrytis cinerea (BOC); .4 ppm, Table IVb, read-out: % Control at (ppm) indicated BOC) was 0% and the inhibition of growth at 0.8 ppm (Botrytis cinerea (BOC); .8 ppm, Table IVb, read-out: % Control at (ppm) indicated BOC) was 0%. It also gave an inhibition of growth at 1.5 ppm (COL; 1.5 ppm) of 0%, an inhibition of growth at 3 ppm (COL; 3 ppm) of 0% and an inhibition of growth at 6 ppm (COL; 6 ppm) of 0%. It also gave an inhibition of growth at 12 ppm (COL; 12 ppm) of 95%, an inhibition of growth at 25 ppm (COL; 25 ppm) of 95% and an inhibition of growth at 0.2 ppm (COL; .2 ppm) of 0%. For the same compound, the inhibition of growth at 0.4 ppm (COL; .4 ppm) was 0%, the inhibition of growth at 0.8 ppm (COL; .8 ppm) was 0% and the inhibition of growth at 1.5 ppm (Piricularia oryzae (PIR); 1.5 ppm, read-out: % Control at (ppm) indicated PIR) was 50%. The inhibition of growth at 6 ppm (Piricularia oryzae (PIR); 6 ppm, read-out: % Control at (ppm) indicated PIR) was 100%, the inhibition of growth at 25 ppm (Piricularia oryzae (PIR); 25 ppm, read-out: % Control at (ppm) indicated PIR) was 100% and the inhibition of growth at 0.2 ppm (Piricularia oryzae (PIR); .2 ppm, read-out: % Control at (ppm) indicated PIR) was 0%. It also gave an inhibition of growth at 0.4 ppm (Piricularia oryzae (PIR); .4 ppm, read-out: % Control at (ppm) indicated PIR) of 0%, an inhibition of growth at 0.8 ppm (Piricularia oryzae (PIR); .8 ppm, read-out: % Control at (ppm) indicated PIR) of 0% and an inhibition of growth at 25 ppm (Piricularia oryzae (PIR); read-out: % Control at 25 ppm PIR) of 100%. It also gave an inhibition of growth at 1.5 ppm (Pythium ultimum (PYU); 1.5 ppm, Table IVb, read-out: % Control at (ppm) indicated PYU) of 100%, an inhibition of growth at 6 ppm (Pythium ultimum (PYU); 6 ppm, Table IVb, read-out: % Control at (ppm) indicated PYU) of 100% and an inhibition of growth at 25 ppm (Pythium ultimum (PYU); Table IVa, read-out: % Control at 25 ppm PYU) of 100%. For the same compound, the inhibition of growth at 25 ppm (Pythium ultimum (PYU); Table IVb, read-out: % Control at (ppm) indicated PYU) was 100%, the inhibition of growth at 0.2 ppm (Pythium ultimum (PYU); .2 ppm, Table IVb, read-out: % Control at (ppm) indicated PYU) was 0% and the inhibition of growth at 0.4 ppm (Pythium ultimum (PYU); .4 ppm, Table IVb, read-out: % Control at (ppm) indicated PYU) was 0%. The inhibition of growth at 0.8 ppm (Pythium ultimum (PYU); .8 ppm, Table IVb, read-out: % Control at (ppm) indicated PYU) was 0%, the inhibition of growth at 1.5 ppm (Septoria nodorum (SEP); 1.5 ppm, Table IVb, read-out: % Control at (ppm) indicated SEP) was 0% and the inhibition of growth at 6 ppm (Septoria nodorum (SEP); 6 ppm, Table IVb, read-out: % Control at (ppm) indicated SEP) was 100%. For the same compound, the inhibition of growth at 25 ppm (Septoria nodorum (SEP); Table IVa, read-out: % Control at 25 ppm SEP) was 100%, the inhibition of growth at 25 ppm (Septoria nodorum (SEP); Table IVb, read-out: % Control at (ppm) indicated SEP) was 100% and the inhibition of growth at 0.2 ppm (Septoria nodorum (SEP); .2 ppm, Table IVb, read-out: % Control at (ppm) indicated SEP) was 0%. It also gave an inhibition of growth at 0.4 ppm (Septoria nodorum (SEP); .4 ppm, Table IVb, read-out: % Control at (ppm) indicated SEP) of 0% and an inhibition of growth at 0.8 ppm (Septoria nodorum (SEP); .8 ppm, Table IVb, read-out: % Control at (ppm) indicated SEP) of 0%.
